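How tested: cells in 96-well plates exposed to compound for 48 hours at five concentrations. Here, GI50 denotes the concentration required for 50% inhibition of growth.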 Calls of active or inactive are those of the source. Rule as the data show it: active = GI50 up to about 1.1 µM and inactive = higher.
Columns and labels:
Experiment in all cases: NCI tumour cell line growth inhibition, 48 h
[1] = system: M19-MEL
[2] = system: NCI/ADR-RES
[3] = system: XF498
[4] = system: LXFL 529
[5] = system: BT-549
[6] = system: MDA-MB-231
[7] = system: PC-3
[8] = system: T47D
[9] = system: RXF 631

Measured: GI50

O=NN1C(c2ccccc2)CCCC1c1ccccc1 (stereo not given)
inactive: [1] 85.9 µM | [2] 51.1 µM | [3] 31.7 µM

C=CCN1/C(=C(\C#N)c2nc3ccccc3[nH]2)Sc2c1nc[nH]c2=O
inactive: [4] > 100 µM | [1] > 100 µM | [3] > 100 µM

CC(OC(C)(C)C)[C@H](NC(=O)OCC(Cl)(Cl)Cl)C(=O)O (stereo not given in full)
inactive: [4] > 100 µM | [1] > 100 µM | [3] > 100 µM

CC(=O)OCC1OC(OCCCCCCO)C(OC(C)=O)C(OC(C)=O)C1OC(C)=O (stereo not given)
inactive: [2] > 100 µM | [5] > 100 µM | [6] > 100 µM | [7] > 100 µM

Cc1ccc(-c2cc(-c3ccco3)c(C#N)c(=O)n2C2OC(CO)C(O)C(O)C2O)cc1 (stereo not given)
inactive: [4] 61.9 µM

O=C(CC(C(=O)c1cccs1)c1ccc2c(c1)OCO2)c1ccc(Br)cc1 (stereo not given)
inactive: [2] > 100 µM | [6] > 100 µM | [7] > 100 µM | [8] > 100 µM

Clc1cc2c(c(CSC3=NCN(CC4CC4)CN3)c1)OCOC2
inactive: [2] 20.6 µM | [5] 19.1 µM | [6] 19.5 µM | [7] 23 µM | [8] 12.9 µM

COc1ccc2c(c1)CCN=C2Cc1cc(OC)c(OC)cc1CCCl
inactive: [2] > 100 µM | [5] > 100 µM | [6] 32.1 µM | [7] 48 µM | [8] 53.1 µM

N#CC1(C#N)C(=O)c2ccncc2C1=O
inactive: [2] 63.7 µM | [5] > 100 µM | [6] > 100 µM | [7] > 100 µM | [8] > 100 µM

CN1NC(c2ccccc2)=C(C#N)C(=O)CC1c1ccc(Br)cc1 (stereo not given)
inactive: [4] 35.7 µM | [3] 28.6 µM

O=C1NC2=C(CCCC/C2=N\O)C12CCCCC2
inactive: [4] > 100 µM | [1] > 100 µM | [3] > 100 µM

COc1cc(/C=C/C(=O)C(C)(C)C)cc(OC)c1OC
inactive: [4] 22.8 µM | [1] 31.8 µM | [3] 82 µM

COC(=O)C12CC3CC(CC(C(=O)O)(C3)C1)C2
inactive: [4] > 100 µM | [1] > 100 µM | [9] > 100 µM | [3] > 100 µM

CCOC(=O)c1ccc(N(CCOS(=O)(=O)c2ccc(C)cc2)CCOS(=O)(=O)c2ccc(C)cc2)cc1
inactive: [2] > 100 µM | [5] > 100 µM | [6] 27.2 µM | [7] 17 µM

Cc1ccc(Nc2n[nH]c(NS(=O)(=O)c3cc(C(=O)Nc4ccc(Cl)cc4)c(Cl)cc3S)n2)cc1
inactive: [2] > 100 µM | [5] > 100 µM | [6] > 100 µM | [7] > 100 µM | [8] 63.2 µM

CC(=O)O[C@]12CCCCCC1C1(O)C(O)CCCC[C@H]12 (stereo not given in full)
inactive: [4] > 100 µM | [1] > 100 µM | [3] > 100 µM

O=S(=O)(O)c1ccc(/N=N\c2ccc(/N=N/c3ccc(/C=C/c4ccc(/N=[N+](\[O-])c5ccc(/C=C/c6ccc(/N=N/c7ccc(/N=N/c8ccc(S(=O)(=O)O)cc8)c8ccccc78)cc6S(=O)(=O)O)c(S(=O)(=O)O)c5)cc4S(=O)(=O)O)c(S(=O)(=O)O)c3)c3ccccc23)cc1
inactive: [1] > 100 µM | [2] > 100 µM | [3] > 66.8 µM

O=C(O)Cc1cccc2c1Oc1ccccc1S2
inactive: [4] > 100 µM | [1] > 100 µM

C[C@]12CCC(=O)C(O)=C1CC[C@@H]1[C@@H]2CC[C@]2(C)C(=O)CC[C@@H]12 [FORMESTANE]
inactive: [4] 59.3 µM | [2] > 100 µM | [9] > 100 µM | [5] > 100 µM | [6] > 100 µM | [3] 88.1 µM | [7] > 100 µM | [8] > 100 µM
